Legend:
[1] = tested on: glioma and normal brain histologic sections; assay: Staining of histologic sections of glioma and normal brain; set-up: species or system human
[2] = format: in vivo, mouse
Experimental: To further assess potential CTX toxicity at doses used for optical imaging, complete necropsy was performed on mice two weeks after exposure to CTX.

[3] = previously reported; cited from earlier work
[4] = tested on: 9L glioma cells; assay: In vitro imaging of CTX:Cy5.5 binding to 9L glioma cells (NIR/confocal microscopy); format: cell-based, rat; conditions: pre-incubation with MMP-2 inhibitor
Experimental: 9L/lacZ gliosarcoma cells (ATCC, VA) and primary human foreskin fibroblast (HFF) were maintained in DMEM and RPMI medium both supplemented with 1% sodium pyruvate, 1% streptomycin/penicillin and 10% FBS (Hyclone, UT), respectively. 2×10^5 cells were seeded on sterile cover slips 36 hrs prior to labeling and confocal microscopy. Cells were cultured with 1 ml of CTX:CY5.5 conjugate (1 uM) for 2 hours in a 37° C. humidified incubator maintained at 5% CO2. Cover slips were washed 2 times in cell culture medium and 2 times in PBS buffer. Following this step, cell membranes were stained with 1 μM solution of FM 1-43FX (Molecular Probes, OR) for 20 min in dark at room temperature, washed 2 times in PBS and fixed in 4% paraformaldehyde. Cellular nuclei were stained with 4′,6-diamidino-2-phenylndole (DAPI, Sigma Aldrich, MO).
Confocal images were acquired using a DeltaVision SA3.1 Wide-Field Deconvolution Microscope (Applied Precision, WA) equipped with DAPI, TRITC, and Cy5 filters. Image processing was performed using SoftWoRX (Applied Precision, WA).
To determine whether CTX retained specific binding to glioma cells after conjugation to Cy5.5, we incubated the conjugate with 9L glioma cells and primary fibroblasts and evaluated binding by NIR microscopy. […]

[5] = tested on: 9L glioma xenografts; assay: In vivo biophotonic imaging of mice with 9L glioma xenografts; set-up: species or system mouse; conditions: versus control mice without 1,10-phenanthroline
Experimental: All mouse studies were conducted in accordance with IACUC approved protocols. Subcutaneous xenografts were established in nu/nu (nude) mice using 9L, a rat gliosarcoma cell line (ATCC), and RH30, a rhabdomyosarcoma cell line. The xenografts were established using 1 million 9L or RH30 cells suspended in serum free media and matrigel at a 1:1 ratio. Intracranial xenografts were established by stereotaxic injection of 1 million 9L cells suspended in 10 μl PBS into the brain 3 mm lateral and posterior to the bregma. ND2:SmoA1 medulloblastoma mice, TRAMP prostate cancer mice and Apc^1638N intestinal adenoma and adenocarcinoma mice were as previously described. See, Fodde, R., et al., A targeted chain-termination mutation in the mouse Apc gene results in multiple intestinal tumors. Proc. Natl. Acad. Sci. U.S.A., 1994. 91(19): p. 8969-73; Greenberg, N. M., et al., Prostate cancer in a transgenic mouse. Proc. Natl. Acad. Sci. U.S.A., 1995. 92(8): p. […]
CTX:Cy5.5 (0.1-0.2 ml of 10-20 μM) was administered intravenously by tail vein injection. […] Relevant organs and tumors were dissected from some of the animals and fluorescence image were obtained immediately following dissection. In time course experiments, all images were captured using identical system settings and fluorescence emission was normalized to photons per second per centimeter squared per steradian (p/s/cm^2/sr).

For Cy5.5, the “staining of glioma section” value [1] was “does not stain glioma”.
In the case of chlorotoxin [CTX], the “laboratory evaluation (electrolytes, blood counts, liver and kidney function)” value ([2]; doses used for optical imaging) is reported as “no alteration”, the toxicity overall ([2]; doses used for optical imaging) is reported as “no toxicity could be detected” and the “pathologic changes in organs (necropsy)” value ([2]; doses used for optical imaging, b143: two weeks after exposure) is reported as “indistinguishable from control mice”. The open field observation ([2]; injected mice versus control mice) was “indistinguishable from control mice” and the “locomotor activity in mice” value [3] was “reduce locomotor activity”.
For `c1cnc2c(c1)ccc1cccnc12` [1,10-phenanthroline], the “Binding of CTX:Cy5.5 to 9L glioma cells after pre-incubation with 1,10-phenanthroline” value [4] was “blocked” and the “Specific binding of CTX:Cy5.5 in mice pre-treated with 1,10-phenanthroline” value [5] was “six-fold lower”.

Source: patent US8778310B2, “Fluorescent chlorotoxin conjugate and method for intra-operative visualization of cancer” (priority 2005, dated 2014)
